In patent US6756380B1, “5-phenyl-pyrimidine derivatives” (Hoffmann-La Roche Inc., priority 1999, dated 2004):
Where a name gives a salt, the structure may show the parent alone.

Tested on: not given
Test: not given
Conditions: not given

| melting point | Compound |
| --- | --- |
| 147 to 149 °C | Cc1ccccc1-c1cnc(OCCN(C)C)nc1C(=O)N(C)Cc1cc(C(F)(F)F)cc(C(F)(F)F)c1 (as salt: hydrochloride) [Example 21, 2-(2-Dimethylamino-ethoxy)-5-o-tolyl-pyrimidine-4-carboxylic acid (3,5-bis-trifluoromethyl-benzyl)-methyl-amide] |

Target: T1, human NK1 receptor (Homo sapiens, UniProt P25103)
T1 construct: expressed in transfected cells; host or cells: CHO cells infected with Semliki virus expression system; membrane suspension
T1 sequence (P25103 whole entry): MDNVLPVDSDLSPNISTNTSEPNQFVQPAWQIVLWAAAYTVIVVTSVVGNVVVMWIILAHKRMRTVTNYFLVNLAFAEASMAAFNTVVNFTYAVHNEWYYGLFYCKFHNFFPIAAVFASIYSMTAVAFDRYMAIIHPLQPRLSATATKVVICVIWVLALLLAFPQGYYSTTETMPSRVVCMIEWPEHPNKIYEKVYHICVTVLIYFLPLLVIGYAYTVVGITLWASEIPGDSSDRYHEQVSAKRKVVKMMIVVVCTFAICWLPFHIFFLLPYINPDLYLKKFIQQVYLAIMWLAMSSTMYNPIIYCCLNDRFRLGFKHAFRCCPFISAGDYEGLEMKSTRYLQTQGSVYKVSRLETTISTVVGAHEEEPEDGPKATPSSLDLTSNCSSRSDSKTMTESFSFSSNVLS
Test: NK1 receptor binding assay, displacement of [3H]substance P
Conditions: [3H]substance P (0.6 nM) displacement; CHO cells infected with the human NK1 receptor (Semliki virus expression system); 60 min at room temperature; read-out: affinity to the NK-1 receptor, given as pKi (converted)
Method: The affinity of test compounds for the NK, receptor was evaluated at human NK, receptors in CHO cells infected with the human NK1 receptor (using the Semliki virus expression system) and radiolabelled with [^3H]substance P (final concentration 0.6 nM). Binding assays were performed in HEPES buffer (50 mM, pH 7.4) containing BSA (0.04 %) leupeptin (8 μg/ml), MnCl2 (3mM) and phosphoramidon (2 μM). Binding assays consisted of 250 μl of membrane suspension (1.25×10^5 cells/assay tube), […] of buffer of displacing agent and 125 μl of [^3H]substance P. Displacement curves were determined with at least seven concentrations of the compound. The assay tubes were incubated for 60 min at room temperature after which time the tube contents were rapidly filtered under vacuum through GF/C filters presoaked for 60 min with PEI (0.3%) with 2×2 ml washed of HEPES buffer (50 mM, pH 7.4). The radioactivity retained on the filters was measured by scintillation counting. All assays were performed in triplicate in at least 2 separate experiments.

| Compound | Ki |
| --- | --- |
| Cc1cc(F)ccc1-c1cnc(NCCN(C)C)nc1C(=O)N(C)Cc1cc(C(F)(F)F)cc(C(F)(F)F)c1 [Example 54, 2-(2-Dimethylamino-ethylamino)-5-(4-fluoro-2-methyl-phenyl)-pyrimidine-4-carboxylic acid (3,5-bis-trifluoromethyl-benzyl)-methyl-amide] | 1.45 nM |
| Cc1ccccc1-c1cnc(OCCN(C)C)nc1N(C)C(=O)C(C)(C)c1cc(C(F)(F)F)cc(C(F)(F)F)c1 [Example 79, 2-(3,5-Bis-trifluoromethyl-phenyl)-N-[2-(2-dimethylamino-ethoxy)-5-o-tolyl-pyrimidin-4-yl]-N-methyl-isobutyramide] | 0.661 nM |

Now from value to molecule:

| Ki | Compound |
| --- | --- |
| 6.17 nM | CN1CCN(c2ncc(-c3ccccc3Cl)c(C(=O)N(C)Cc3cc(C(F)(F)F)cc(C(F)(F)F)c3)n2)CC1 [Example 13, 5-(2-Chloro-phenyl)-2-(4-methyl-piperazin-1-yl)-pyrimidine-4-carboxylic acid (3,5-bis-trifluoromethyl-benzyl)-methyl-amide] |
| 2.19 nM | Cc1ccccc1-c1cnc(OCCN(C)C)nc1C(=O)N(C)Cc1cc(C(F)(F)F)cc(C(F)(F)F)c1 [Example 21, 2-(2-Dimethylamino-ethoxy)-5-o-tolyl-pyrimidine-4-carboxylic acid (3,5-bis-trifluoromethyl-benzyl)-methyl-amide] |
| 3.72 nM | CN1CCN(c2ncc(-c3cccc4ccccc34)c(C(=O)N(C)Cc3cc(C(F)(F)F)cc(C(F)(F)F)c3)n2)CC1 [Example 25, 2-(4-Methyl-piperazin-1-yl)-5-naphthalen-1-yl-pyrimidine-4-carboxylic acid (3,5-bis-trifluoromethyl-benzyl)-methyl-amide] |
